Legend:
[1] = test system: Pseudomonas aeruginosa (ATCC 9027); assay: MIC / log kill assay, FDA 510(k) stand-alone procedure; type: cell-based
Experimental: (§1) The supernatant was discarded and the wash repeated.
(§2) The tube was inverted to dissolve the polypeptide. […] Solutions were used immediately or stored at −20° C.
(§3) The purpose of this experiment was to determine whether additives such as surfactants (pluronic) and chelating agents (EDTA) would effect L-IND activity. The concentrations selected for each organism tested ( S. aureus and P. aeruginosa) were based on the L-IND MIC for that organism. A lower concentration was also selected to determine whether the additives enhanced the antimicrobial activity of L-IND. Concentrations of L-IND ranged from 3.12 to 50 μg/ml. The concentration of sodium phosphate (SP) buffer was also examined and ranged from 1 to 10 mM.
(§4) A full factorial experimental design was used with 5 factors at 2 levels: 1) Exposure time (1 hr, 4hr); 2) SP buffer concentration, pH 7.4 (1 mM, 10 mM); 3) Surfactant concentration (0.25 wt %, 0.5 wt %); 4) EDTA concentration (0.1 wt %, 0.2 wt %); and 5) L-IND concentration (MIC and lower).
(§5) As described in the MIC procedure (Example 10), cultures were exposed to solutions containing various combinations of the above components for 1 or 4 hr at room temperature. Appropriate controls were conducted to evaluate the effects of individual components. Each replicate (assay done in triplicate) was then diluted 10-fold in NaCl and plated onto Mueller-Hinton agar. Colonies were then counted and log kill, effects of each additive, SP buffer concentration, and length of exposure on L-IND activity were examined. […]

[2] = test system: Staphylococcus aureus (ATCC 6538); assay: as above; type: cell-based; details: for log kill: 12.5 μg/ml
Experimental: as §1, §2, §3, §4, §5

S. aureus ATCC 6538 [3] = assay: Long-term (8 month) stability in commercial container (Rite-Aid) by S. aureus bioassay; type: cell-based, Staphylococcus aureus; details: 50 μg/ml; for log kill: 4 hours exposure; for stability: 8 months
Experimental: Long term stability of indolicidin was evaluated in a commercial container (Rite-Aid). The L-indolicidin concentration was 50 μg/ml formulated in a 10 mM sodium phosphate buffer, pH 7.4, with and without 0.85% sodium chloride. The test organism was S. aureus ATCC 6538. Sampling time was 0, 1, 2, 3, 4 and 8 months. The exposure time of the test organism was 0 and 4 hours.

S. aureus ATCC 6538 [4] = assay: Protocol 3 time-dependent antimicrobial activity at one dose level; type: cell-based, Staphylococcus aureus; details: 50 μg/ml, 10 mM sodium phosphate buffer pH 7.4, 1, 2, 5 and 15 minutes, room temperature
Experimental: The objective of this protocol is to establish a procedure for determining the antimicrobial activity of indolicidin (e.g., L-IND) at 50 μg/ml over an extended exposure time up to 24 hours at room temperature. It is believed that this procedure more closely mimics the recommended use of lens-care products.
Exposure of the test organism to indolicidin occurs in a buffered solution for up to 24 hours with sampling for viability at different time intervals. Polypropylene 96-well microtiter plates and microcentrifuge tubes are used for exposure and dilution of indolicidin, respectively.
The following materials are used: sterile glass tubes containing 5 ml of Mueller-Hinton Broth (MHB), Mueller-Hinton agar plates, sterile 96-well polypropylene microtiter plates, and sterile polypropylene microcentrifuge tubes.
One or more of the following microorganisms are used in assays using this protocol or modification of this protocol: Pseudomonas aeruginosa (ATCC 9027), Pseudomonas aeruginosa (ATCC 27853), and S. aureus (ATCC 6538).
Five 5 ml of MHB tubes are innoculated with the tester strain(s) from MHA plates and grown overnight at 37° C. on a shaker (180 rpm). […]
Survival is determined by counting the colonies appearing on plates after overnight incubation at 37° C. The results are expressed as CFU/ml and survival is expressed as the percent of the bacteria that survived the treatment. […]

**Q.** For CC[C@H](C)[C@H](N)C(=O)N[C@@H](CC(C)C)C(=O)N1CCC[C@H]1C(=O)N[C@@H](Cc1c[nH]c2ccccc12)C(=O)N[C@@H](CCCCN)C(=O)N[C@@H](Cc1c[nH]c2ccccc12)C(=O)N1CCC[C@H]1C(=O)N[C@@H](Cc1c[nH]c2ccccc12)C(=O)N[C@@H](Cc1c[nH]c2ccccc12)C(=O)N1CCC[C@H]1C(=O)N[C@@H](Cc1c[nH]c2ccccc12)C(=O)N[C@@H](CCCNC(=N)N)C(=O)N[C@@H](CCCNC(=N)N)C(N)=O [L-indolicidin, H2N-ILPWKWPWWPWRR-CONH2], which “effect of pluronic on activity” value ([1]; 32 μ/ml, 0.25 wt % pluronic, either SP buffer concentration) is on record?
**A.** No effect

**Q.** What about the inhibition in kill ([1]; pluronic in 1 mM SP buffer, 32 and 16 μg/ml, 4 hr) of the same molecule?
**A.** ~3 log

**Q.** And the log kill ([2]; 1 mM SP buffer, pluronic and EDTA at either concentration)?
**A.** 6 log

**Q.** And the log kill ([2]; 10 mM SP, without pluronic)?
**A.** 6 log

**Q.** What about the “effect of EDTA on activity” value ([2]; 10 mM SP, EDTA 0.1 or 0.2 wt %) of the same molecule?
**A.** no effect

**Q.** And the inhibition in kill ([2]; 0.5 wt % pluronic, SP at 5 mM)?
**A.** approximately 4 log

**Q.** What about the inhibition in kill ([2]; 32 μ/ml, pluronic and 10 mM SP buffer) of the same molecule?
**A.** > 3 log

**Q.** What about the “effect of pluronic on activity” value ([2]; lower SP concentrations (1, 2.5 mM)) of the same molecule?
**A.** no effect in activity

**Q.** What about the log kill (S. aureus ATCC 6538 [3]; 10 mM SP pH 7.4, over 8 months) of the same molecule?
**A.** ~4 log

**Q.** What about the log kill (S. aureus ATCC 6538 [3]; 10 mM SP with 0.85% NaCl, over 8 months) of the same molecule?
**A.** ~1 log

**Q.** What about the stability (S. aureus ATCC 6538 [3]; 10 mM SP with NaCl) of the same molecule?
**A.** 100%

**Q.** And the stability (S. aureus ATCC 6538 [3]; 10 mM SP)?
**A.** 100%

**Q.** What about the survival (S. aureus ATCC 6538 [4]) of the same molecule?
**A.** no survival

Reference: patent publication US6482799B1, “Self-preserving multipurpose ophthalmic solutions incorporating a polypeptide antimicrobial” (The Regents of the University of California, priority 1999, dated 2002)
